Laboratory results: US8586505B2 (SDS Biotech K. K., priority 2009, dated 2013)

What was measured:
[1] = test system: Pseudoperonospora cubensis; assay: Test of examining control effect on Pseudoperonospora cubensis (potted cucumber plants); format: in vivo; details: 96 h, 10% wettable powder adjusted to 125 ppm, 15 ml/pot sprayed on potted cucumber plants one day before spray inoculation, assessed after 1 day wet chamber and 3 days greenhouse, read-out: Determination of control effect (preventive value) on Pseudoperonospora cubensis
In short: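 Preventive treatment: 125 ppm sample agent solution (from 10% wettable powder) sprayed at 15 ml/pot on 2.5-leaf Sagamihanjiro cucumbers, then P. cubensis inoculated next day at 1.0×10^4 cells/ml. Incubation was 1 day wet at 21° C plus 3 days greenhouse. Lesion area rate compared with untreated gives preventive value (≥60% high).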

[2] = test system: Phytophthora infestans; assay: whole plant or invertebrate; format: in vivo; details: in Solanum lycopersicum, 96 h, read-out: Determination of control effect (preventive value)
[3] = test system: Sphaerotheca fuliginea; assay: Test of examining control effect on Sphaerotheca fuliginea (potted cucumber plants); format: in vivo; details: Podosphaera fuliginea, 336 h; 10% wettable powder adjusted to 125 ppm, 15 ml/pot sprayed on potted cucumber plants one day before spray inoculation; assessed after 14 days in greenhouse; read-out: Determination of control effect (preventive value) on Sphaerotheca fuliginea
In short: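 Control effect rated high at preventive value 60–100% and low below 60%, from lesion area relative to untreated plants 14 days after spray inoculation with S. fuliginea (1.0×10^5 cells/ml). Compound applied at 125 ppm as wettable-powder spray one day before inoculation, on 2nd-leaf-stage Sagamihanjiro cucumber.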

For OCc1cc(C#CCCNc2ncnc3ccccc23)co1 [compound 209], the pest or weed control at 125 µg/mL [1] was 60 to 100%, the pest or weed control at 125 ppm [2] was 0 to 60% and the pest or weed control at 125 µg/mL [3] was 0 to 60%. For the same compound, the melting point was 135 to 147 °C.
For Clc1ccc(Cl)c(C#CCCNc2ncnc3ccccc23)c1 [compound 173], the pest or weed control at 125 µg/mL [1] was 60 to 100%, the pest or weed control at 125 ppm [2] was 0 to 60% and the pest or weed control at 125 µg/mL [3] was 60 to 100%. For the same compound, the melting point was 176 to 177 °C.
Work on OCc1ccc(C#CCCNc2ncnc3ccccc23)cn1 [compound 202] yielded a pest or weed control at 125 µg/mL [1] of 60 to 100%, a pest or weed control at 125 ppm [2] of 0 to 60% and a pest or weed control at 125 µg/mL [3] of 0 to 60%. The melting point was 183 to 185 °C.
Work on CC(C)[Si](C#CCCNc1ncnc2sccc12)(C(C)C)C(C)C [compound 4] yielded a pest or weed control at 125 µg/mL [1] of 0 to 60%, a pest or weed control at 125 ppm [2] of 0 to 60% and a pest or weed control at 125 µg/mL [3] of 0 to 60%. It also gave a melting point of 196 to 198 °C.
With C=C(C#CCCNc1ncnc2ccccc12)CO [compound 92] the pest or weed control at 125 µg/mL [1] was 60 to 100%, the pest or weed control at 125 ppm [2] was 60 to 100% and the pest or weed control at 125 µg/mL [3] was 0 to 60%. The melting point was 139 °C.
For OCc1cnccc1C#CCCNc1ncnc2ccccc12 [compound 201], the pest or weed control at 125 µg/mL [1] was 60 to 100%, the pest or weed control at 125 ppm [2] was 0 to 60% and the pest or weed control at 125 µg/mL [3] was 60 to 100%. For the same compound, the melting point was 182 to 186 °C.
Work on CCOC(=O)c1sc(C#CCCNc2ncnc3ccccc23)nc1C [compound 214] yielded a pest or weed control at 125 µg/mL [1] of 60 to 100%, a pest or weed control at 125 ppm [2] of 0 to 60% and a pest or weed control at 125 µg/mL [3] of 60 to 100%. For the same compound, the melting point was 139 to 140 °C.
Work on Clc1ccc(C#CCCNc2ncnc3ccccc23)cc1Cl [compound 175] yielded a pest or weed control at 125 µg/mL [1] of 60 to 100%, a pest or weed control at 125 ppm [2] of 0 to 60% and a pest or weed control at 125 µg/mL [3] of 60 to 100%. For the same compound, the melting point was 147 to 148 °C.
CCOC(=O)c1ccc(C#CCCNc2ncnc3ccccc23)cc1 [compound 129] showed a pest or weed control at 125 µg/mL [1] of 60 to 100%, a pest or weed control at 125 ppm [2] of 0 to 60% and a pest or weed control at 125 µg/mL [3] of 0 to 60%. It also gave a melting point of 137 to 138 °C.
For FC(F)(F)c1ccccc1C#CCC(Nc1ncnc2ccccc12)c1ccccc1 (centres unmarked) [compound 302], the pest or weed control at 125 µg/mL [1] was 0 to 60%, the pest or weed control at 125 ppm [2] was 0 to 60% and the pest or weed control at 125 µg/mL [3] was 0 to 60%. The melting point was 150 to 152 °C.
Compound Clc1ccc(C#CCCNc2ncnc3ccccc23)c(Cl)c1 [compound 172] has a pest or weed control at 125 µg/mL [1] of 60 to 100%, a pest or weed control at 125 ppm [2] of 60 to 100% and a pest or weed control at 125 µg/mL [3] of 60 to 100%. It also gave a melting point of 182 to 183 °C.
Compound CC(=O)OCc1nc(C#CCCNc2ncnc3sccc23)cs1 [compound 73] has a pest or weed control at 125 µg/mL [1] of 60 to 100%, a pest or weed control at 125 ppm [2] of 60 to 100% and a pest or weed control at 125 µg/mL [3] of 60 to 100%. For the same compound, the melting point was 128 to 129 °C.
CC(C)(C)[Si](C)(C)C#CCCNc1ncnc2sccc12 [compound 5] gave a pest or weed control at 125 µg/mL [1] of 60 to 100%, a pest or weed control at 125 ppm [2] of 0 to 60% and a pest or weed control at 125 µg/mL [3] of 60 to 100%. The melting point was 190 to 192 °C.
For OC(c1ccccc1C#CCCNc1ncnc2ccccc12)C(F)(F)F (centres unmarked) [compound 138], the pest or weed control at 125 µg/mL [1] was 0 to 60%, the pest or weed control at 125 ppm [2] was 0 to 60% and the pest or weed control at 125 µg/mL [3] was 0 to 60%. It also gave a melting point of 183 to 187 °C.
Work on C(#Cc1csc(-c2ccsc2)n1)CCNc1ncnc2sccc12 [compound 80] yielded a pest or weed control at 125 µg/mL [1] of 60 to 100%, a pest or weed control at 125 ppm [2] of 0 to 60% and a pest or weed control at 125 µg/mL [3] of 60 to 100%. For the same compound, the melting point was 55 to 56 °C.
In the case of Cc1cccc(C#CCCNc2ncnc3sccc23)c1 [compound 18], the pest or weed control at 125 µg/mL [1] is reported as 60 to 100%, the pest or weed control at 125 ppm [2] is reported as 0 to 60% and the pest or weed control at 125 µg/mL [3] is reported as 60 to 100%. It also gave a melting point of 120 to 123 °C.
For COc1ccc(Oc2nc(C#CCCNc3ncnc4ccccc34)cs2)cc1 [compound 217], the pest or weed control at 125 µg/mL [1] was 60 to 100%, the pest or weed control at 125 ppm [2] was 0 to 60% and the pest or weed control at 125 µg/mL [3] was 60 to 100%. It also gave a melting point of 150 to 152 °C.
Work on FC(F)(F)c1ccccc1Oc1nc(C#CCCNc2ncnc3ccccc23)cs1 [compound 218] yielded a pest or weed control at 125 µg/mL [1] of 60 to 100%, a pest or weed control at 125 ppm [2] of 0 to 60% and a pest or weed control at 125 µg/mL [3] of 0 to 60%. The melting point was 159 to 161 °C.
Clc1cccc(C#CCCNc2ncnc3ccccc23)c1Cl [compound 171] showed a pest or weed control at 125 µg/mL [1] of 60 to 100%, a pest or weed control at 125 ppm [2] of 60 to 100% and a pest or weed control at 125 µg/mL [3] of 60 to 100%. The melting point was 175 to 176 °C.
In the case of FC(F)(F)c1cc(C#CCCNc2ncnc3sccc23)cc(C(F)(F)F)c1 [compound 28], the pest or weed control at 125 µg/mL [1] is reported as 0 to 60%, the pest or weed control at 125 ppm [2] is reported as 0 to 60% and the pest or weed control at 125 µg/mL [3] is reported as 0 to 60%. It also gave a melting point of 163 to 166 °C.
